Assay results: ChEMBL document CHEMBL2016455, “5-Benzothiazole substituted pyrimidine derivatives as HCV replication (replicase) inhibitors” (Bioorg Med Chem Lett, 2012)
pEC50: −log10 of the molar value.

Experiments:
[1] = test system: Hepatitis C virus; test: Antiviral activity against Hepatitis C virus isolate con1 1b infected in human hepatoma cells replicon cells after 3 days by RT-PCR analysis; type: functional, organism-based, Hepacivirus hominis, genotype 1b Con1; settings: Hepatitis C virus, genotype 1b Con1, 72 h
[2] = AUC (0 to 6 hrs) in rat at 10 mg/kg, po; type: ADME, organism-based; parameters: time < 6 hr, dose 10 mg/kg, route oral; settings: plasma
[3] = test system: Liver; test: Drug uptake in rat liver per mg tissue at 10 mg/kg, po after 6 hrs; type: ADME, organism-based; parameters: dose 10 mg/kg, route oral; settings: in vivo
[4] = Cytotoxicity against human hepatoma cells assessed as decrease in RNA level after 3 days by RT-PCR analysis; type: cell-based; settings: human hepatoma cells
[5] = Cytotoxicity against human hepatoma cells after 3 days by MTS assay; type: cell-based; settings: human hepatoma cells

SMILES | pEC50 [1] | AUC(0-t) at 6 h [2] [µM·h] | Drug uptake [3] [ng/g] | CC50 at 72 h [4] [µM] | CC50 at 72 h [5] [µM]
Cc1nc(NCC2CCC2)nc(N[C@@H]2C[C@H](CO)[C@@H](O)[C@H]2O)c1-c1nc2ccccc2s1 | 6.60 | 0.5 | 150 | > 25 | > 25
CCc1nc(N(C)C)nc(N[C@@H]2C[C@H](CO)[C@@H](O)[C@H]2O)c1-c1nc2ccccc2s1 | 4.89 | – | – | > 25 | > 25
COCCNc1nc(C)c(-c2nc3ccccc3s2)c(N[C@@H]2C[C@H](CO)[C@@H](O)[C@H]2O)n1 | 7.46 | 5.9 | 875 | 21 | 15
CCOCCNc1nc(C)c(-c2nc3ccccc3s2)c(N[C@@H]2C[C@H](CO)[C@@H](O)[C@H]2O)n1 | 7.46 | 2.4 | 400 | 18 | 18
Cc1nc(NCCOC(C)C)nc(N[C@@H]2C[C@H](CO)[C@@H](O)[C@H]2O)c1-c1nc2ccccc2s1 | 7.70 | 0.9 | 130 | 8 | 7
CCOC(=O)NCCNc1nc(C)c(-c2nc3ccccc3s2)c(N[C@@H]2C[C@H](CO)[C@@H](O)[C@H]2O)n1 | 7.40 | 0.3 | 63 | 12 | 19
Cc1nc(NCCNC(=O)NC(C)(C)C)nc(N[C@@H]2C[C@H](CO)[C@@H](O)[C@H]2O)c1-c1nc2ccccc2s1 | 6.05 | – | – | > 25 | > 25
Cc1nc(NCCNS(C)(=O)=O)nc(N[C@@H]2C[C@H](CO)[C@@H](O)[C@H]2O)c1-c1nc2ccccc2s1 | 6.59 | – | – | > 25 | > 25
Cc1nc(NCCN2CCOCC2)nc(N[C@@H]2C[C@H](CO)[C@@H](O)[C@H]2O)c1-c1nc2ccccc2s1 | 7.40 | 0.2 | 370 | 25 | 25
OC[C@H]1C[C@@H](Nc2nc(NCC(F)(F)F)nc(C3CC3)c2-c2nc3ccccc3s2)[C@H](O)[C@@H]1O | 6.15 | 12.8 | 12800 | > 25 | > 25
Cc1nc(N[C@@H](C)C(F)(F)F)nc(N[C@@H]2C[C@H](CO)[C@@H](O)[C@H]2O)c1-c1nc2ccccc2s1 | 6.85 | 13 | 6570 | > 25 | > 25
Cc1nc(N[C@H](C)C(F)(F)F)nc(N[C@@H]2C[C@H](CO)[C@@H](O)[C@H]2O)c1-c1nc2ccccc2s1 | 7.00 | – | – | 21 | 19
Cc1nc(NCCC(F)(F)F)nc(N[C@@H]2C[C@H](CO)[C@@H](O)[C@H]2O)c1-c1nc2ccccc2s1 | 7.52 | 5.3 | 1080 | 9 | 9
Cc1nc(NCCCC(F)(F)F)nc(N[C@@H]2C[C@H](CO)[C@@H](O)[C@H]2O)c1-c1nc2ccccc2s1 | 7.52 | 2.1 | 2230 | 3 | 4
Cc1nc(Nc2ccccc2)nc(N[C@@H]2C[C@H](CO)[C@@H](O)[C@H]2O)c1-c1nc2ccccc2s1 | 6.55 | 1.6 | 970 | > 25 | > 25
Cc1nc(Nc2ccncc2)nc(N[C@@H]2C[C@H](CO)[C@@H](O)[C@H]2O)c1-c1nc2ccccc2s1 | 6.48 | – | – | 7 | 7
Cc1nc(Nc2nccs2)nc(N[C@@H]2C[C@H](CO)[C@@H](O)[C@H]2O)c1-c1nc2ccccc2s1 | 6.11 | – | – | 15 | 13
Cc1nc(Nc2ncco2)nc(N[C@@H]2C[C@H](CO)[C@@H](O)[C@H]2O)c1-c1nc2ccccc2s1 | 5.35 | – | – | > 25 | > 25
Cc1nc(NCc2ccccc2)nc(N[C@@H]2C[C@H](CO)[C@@H](O)[C@H]2O)c1-c1nc2ccccc2s1 | 7.52 | 2.2 | 430 | 9 | 7
Cc1nc(NCc2cccs2)nc(N[C@@H]2C[C@H](CO)[C@@H](O)[C@H]2O)c1-c1nc2ccccc2s1 | 8.22 | 0.5 | 180 | 6 | 5
Cc1nc(NCc2ccsc2)nc(N[C@@H]2C[C@H](CO)[C@@H](O)[C@H]2O)c1-c1nc2ccccc2s1 | 7.82 | 0.2 | 75 | 6 | 4
Cc1nc(NCc2nccs2)nc(N[C@@H]2C[C@H](CO)[C@@H](O)[C@H]2O)c1-c1nc2ccccc2s1 | 7.52 | 0.5 | 150 | 23 | 21
Cc1nc(NCc2ccccn2)nc(N[C@@H]2C[C@H](CO)[C@@H](O)[C@H]2O)c1-c1nc2ccccc2s1 | 7.52 | 3.4 | 125 | 13 | 18
Cc1nc(NCc2cccnc2)nc(N[C@@H]2C[C@H](CO)[C@@H](O)[C@H]2O)c1-c1nc2ccccc2s1 | 7.82 | 0.02 | 10 | 5 | 11
Cc1nc(NCc2ccncc2)nc(N[C@@H]2C[C@H](CO)[C@@H](O)[C@H]2O)c1-c1nc2ccccc2s1 | 7.52 | 0.1 | 100 | 7 | 9
